Test results: PubChem BioAssay (NCI)
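Step 1: Grow cells in 96-well plates. Step 2: Expose to compound for 48 hours at 5 concentrations. Step 3: Interpolate endpoints linearly; if unreached, use highest concentration. The concentration for full growth arrest is given as TGI.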

Experiments:
Test in all cases: DTP human tumour cell line panel, 48 h
SW-620 colon = system: SW-620 colon
CAKI-1 renal = system: CAKI-1 renal
HCT-15 colon = system: HCT-15 colon
HT29 colon = system: HT29 colon
A549 NSCLC = system: A549 NSCLC
NCI-H460 lung = system: NCI-H460 lung
OVCAR-4 ovarian = system: OVCAR-4 ovarian
COLO 205 colon = system: COLO 205 colon
MOLT-4 leukemia = system: MOLT-4 leukemia
M14 melanoma = system: M14 melanoma

For `Nc1ncnc2c1ncn2[C@@H]1O[C@H](COC(c2ccccc2)(c2ccccc2)c2ccccc2)[C@@H](OC(=S)Oc2ccccc2)[C@@H]1F`, the TGI (SW-620 colon) was 29.7 µM, the TGI (CAKI-1 renal) was 41.6 µM and the TGI (HCT-15 colon) was 12.5 µM. It also gave a TGI (HT29 colon) of 22.7 µM, a TGI (A549 NSCLC) of 43.7 µM and a TGI (NCI-H460 lung) of 46.3 µM. For the same molecule, the TGI (OVCAR-4 ovarian) was 57.9 µM, the TGI (COLO 205 colon) was 24.8 µM and the TGI (MOLT-4 leukemia) was 5.98 µM. The TGI (M14 melanoma) was 21 µM.

`COc1ccc(CNc2cc(=O)n(C)c(=O)[nH]2)cc1` was tested, and the TGI (SW-620 colon) was > 100 µM, the TGI (CAKI-1 renal) was > 100 µM and the TGI (HCT-15 colon) was > 100 µM. For the same molecule, the TGI (HT29 colon) was > 100 µM, the TGI (A549 NSCLC) was > 100 µM and the TGI (NCI-H460 lung) was > 100 µM. The TGI (OVCAR-4 ovarian) was > 100 µM, the TGI (COLO 205 colon) was > 100 µM and the TGI (MOLT-4 leukemia) was > 100 µM. The TGI (M14 melanoma) was > 100 µM.

For `COc1cccc(C(=O)C#Cc2cnc(OC)nc2OC)c1`, the TGI (SW-620 colon) was 1.94 µM, the TGI (CAKI-1 renal) was 4.39 µM and the TGI (HCT-15 colon) was 0.516 µM. It also gave a TGI (HT29 colon) of 2.67 µM, a TGI (A549 NSCLC) of 21.4 µM and a TGI (NCI-H460 lung) of 28.3 µM. For the same molecule, the TGI (OVCAR-4 ovarian) was 6.61 µM, the TGI (COLO 205 colon) was 3.88 µM and the TGI (MOLT-4 leukemia) was 0.7 µM. For the same molecule, the TGI (M14 melanoma) was 6.28 µM.

For `CO/N=C1/c2sccc2[C@H](NC(=O)C(Cc2ccccc2)NC(=O)OC(C)(C)C)[C@@H]1O` (stereo not given in full), the TGI (SW-620 colon) was > 100 µM, the TGI (CAKI-1 renal) was > 100 µM and the TGI (HCT-15 colon) was > 100 µM. The TGI (HT29 colon) was > 100 µM, the TGI (A549 NSCLC) was > 100 µM and the TGI (NCI-H460 lung) was > 100 µM. For the same molecule, the TGI (OVCAR-4 ovarian) was > 100 µM, the TGI (COLO 205 colon) was > 100 µM and the TGI (MOLT-4 leukemia) was > 100 µM. The TGI (M14 melanoma) was > 100 µM.

`CN(CCCNC(=O)c1cc(-c2ccccc2)nc2ccccc12)CCCNC(=O)c1cc(-c2ccccc2)nc2ccccc12` gave a TGI (SW-620 colon) of 3.38 µM, a TGI (CAKI-1 renal) of 22.7 µM and a TGI (HCT-15 colon) of 12.2 µM. The TGI (HT29 colon) was 3.46 µM, the TGI (A549 NSCLC) was 15.3 µM and the TGI (NCI-H460 lung) was 3.81 µM. The TGI (OVCAR-4 ovarian) was 11.3 µM, the TGI (COLO 205 colon) was 3.14 µM and the TGI (MOLT-4 leukemia) was 5.33 µM. It also gave a TGI (M14 melanoma) of 3.17 µM.

In the case of `CCOC(=O)C1CCCCN1C(=O)Cc1c[nH]c2ccccc12` (stereo not given), the TGI (SW-620 colon) is reported as > 100 µM, the TGI (CAKI-1 renal) is reported as > 100 µM and the TGI (HCT-15 colon) is reported as > 100 µM. The TGI (HT29 colon) was > 100 µM, the TGI (A549 NSCLC) was > 100 µM and the TGI (NCI-H460 lung) was > 100 µM. The TGI (OVCAR-4 ovarian) was > 100 µM, the TGI (COLO 205 colon) was > 100 µM and the TGI (MOLT-4 leukemia) was > 100 µM. For the same molecule, the TGI (M14 melanoma) was > 100 µM.

For `N#Cc1nc(C#N)n(S(=O)(=O)c2ccccc2)c1NS(=O)(=O)c1ccccc1`, the TGI (SW-620 colon) was > 100 µM, the TGI (CAKI-1 renal) was > 57.7 µM and the TGI (HCT-15 colon) was > 100 µM. The TGI (HT29 colon) was > 100 µM, the TGI (A549 NSCLC) was > 100 µM and the TGI (NCI-H460 lung) was > 100 µM. The TGI (OVCAR-4 ovarian) was > 100 µM, the TGI (COLO 205 colon) was > 100 µM and the TGI (MOLT-4 leukemia) was > 100 µM. For the same molecule, the TGI (M14 melanoma) was > 100 µM.

In the case of `Cc1cc2c(cc1C)[n+](=O)c(C(=O)c1ccccc1)c(C(F)(F)F)n2[O-]`, the TGI (SW-620 colon) is reported as 21.2 µM, the TGI (CAKI-1 renal) is reported as 2.42 µM and the TGI (HCT-15 colon) is reported as > 34.4 µM. It also gave a TGI (HT29 colon) of 9.11 µM, a TGI (A549 NSCLC) of 3.88 µM and a TGI (NCI-H460 lung) of 2.98 µM. For the same molecule, the TGI (OVCAR-4 ovarian) was 1.71 µM, the TGI (COLO 205 colon) was 2.95 µM and the TGI (MOLT-4 leukemia) was > 28.3 µM. For the same molecule, the TGI (M14 melanoma) was 16.5 µM.

With `CCCc1[nH]c2ccccc2c1-c1c(CCC)[nH]c2ccccc12` the TGI (SW-620 colon) was 23.7 µM, the TGI (CAKI-1 renal) was 38.5 µM and the TGI (HCT-15 colon) was 23.5 µM. The TGI (HT29 colon) was 22.2 µM, the TGI (A549 NSCLC) was > 75.4 µM and the TGI (NCI-H460 lung) was 59.7 µM. For the same molecule, the TGI (OVCAR-4 ovarian) was > 68.2 µM, the TGI (COLO 205 colon) was 37.1 µM and the TGI (MOLT-4 leukemia) was > 100 µM. For the same molecule, the TGI (M14 melanoma) was 27.9 µM.

In the case of `C=CCC1(C)CCCN(Cc2ccccc2)C1=O` (stereo not given), the TGI (SW-620 colon) is reported as > 10 µM, the TGI (CAKI-1 renal) is reported as > 10 µM and the TGI (HCT-15 colon) is reported as > 10 µM. The TGI (HT29 colon) was > 10 µM, the TGI (A549 NSCLC) was > 10 µM and the TGI (NCI-H460 lung) was > 10 µM. The TGI (OVCAR-4 ovarian) was > 10 µM, the TGI (COLO 205 colon) was > 10 µM and the TGI (MOLT-4 leukemia) was > 10 µM. The TGI (M14 melanoma) was > 10 µM.

For `CCN(CC)c1nnc(CCCCCCCCc2nnc(N(CC)CC)o2)o1`, the TGI (SW-620 colon) was > 100 µM, the TGI (CAKI-1 renal) was > 100 µM and the TGI (HCT-15 colon) was > 100 µM. For the same molecule, the TGI (HT29 colon) was > 100 µM, the TGI (A549 NSCLC) was > 100 µM and the TGI (NCI-H460 lung) was > 100 µM. For the same molecule, the TGI (OVCAR-4 ovarian) was > 100 µM, the TGI (COLO 205 colon) was > 100 µM and the TGI (MOLT-4 leukemia) was > 100 µM. For the same molecule, the TGI (M14 melanoma) was > 100 µM.

In the case of `COc1cccc(/N=N/C(=NNC(=O)c2ccc(C)cc2)c2ccc(N(C)C)cc2)c1`, the TGI (SW-620 colon) is reported as > 100 µM, the TGI (CAKI-1 renal) is reported as > 100 µM and the TGI (HCT-15 colon) is reported as > 100 µM. For the same molecule, the TGI (HT29 colon) was > 100 µM, the TGI (A549 NSCLC) was > 100 µM and the TGI (NCI-H460 lung) was > 100 µM. The TGI (OVCAR-4 ovarian) was > 100 µM, the TGI (COLO 205 colon) was > 100 µM and the TGI (MOLT-4 leukemia) was > 100 µM. The TGI (M14 melanoma) was > 100 µM.
